According to patent US8299236B2, “Compositions and methods for enhancing delivery of nucleic acids into cells and for modifying expression of target genes in cells” (Marina Biotech, Inc., priority 2004, dated 2012):

Assays:
mouse tail fibroblasts = experiment: siRNA uptake with siRNA/peptide complexes in murine primary fibroblasts; assay type: cell-based; conditions: Table 6
Method: Approximately 10,000 9 L/lacZ cells were plated per well in flat-bottom 96-well plates so that they would be ˜50% confluent the next day at the time of transfection. FAM-labeled siRNA and peptides were diluted in Opti-MEM® media (Invitrogen) at 2-fold the final concentration. Equal volumes of siRNA and peptide were mixed and allowed to complex 5-10 minutes at room temperature and then 50 μL added to cells, previously washed with PBS. Cells were transfected for 3 hours at 37° C., 5% CO2. Cells were washed with PBS, treated with trypsin and then analyzed by flow cytometry. siRNA uptake was measured by intensity of FAM fluorescence and cellular viability assessed by addition of propidium iodide.
The materials and methods used for these experiments are generally the same as described above, except that for the murine experiments 9 L/LacZ cells were replaced with mouse tail fibroblasts.
The uptake measurements were performed using mouse tail fibroblast cells.

9 L/LacZ cells = experiment: Screening of siRNA/peptide complexes for FAM-siRNA uptake (flow cytometry, propidium iodide); assay type: cell-based; conditions: Table 6
hTNF-α = experiment: Plasma hTNF-α ELISA in human TNF-α expressing mice; assay type: in vivo, mouse; conditions: i.v., average of the mice
Excerpt: During the injection periods, plasma samples were collected for ELISA testing (R&D Systems, Cat#SSTA00C), and paw scores were taken twice a week as an accepted index of RA disease progression and therapeutic efficacy.

[1] = test system: transgenic mouse models of rheumatoid arthritis (RA) constitutively expressing human TNF-α; experiment: Transgenic mouse models of rheumatoid arthritis constitutively expressing human TNF-α; assay type: in vivo; conditions: twice weekly beginning at age 6 weeks; stabilization beginning at age 7 weeks
Method: One exemplary candidate siRNA/delivery peptide formulation was evaluated in two transgenic mouse models of rheumatoid arthritis (RA) constitutively expressing human TNF-α.

cells = experiment: Uptake of peptide-siRNA conjugate versus complex (Cy5 fluorescence, flow cytometry); assay type: cell-based; conditions: FIGS. 1 and 2
Method: Cells were plated the day before in 24-well plates so that they were ˜50-80% confluent at time of transfection. For complexes, siRNA and peptide were diluted in Opti-MEM® media (Invitrogen), then mixed and allowed to complex 5-10 minutes before adding to cells washed with PBS. Final concentration of siRNA was 500 nM at each peptide concentration (2-50 μM). The conjugate, also diluted in Opti-MEM® media, was added to cells at final concentrations ranging from 62.5 nM to 500 nM. At 500 nM concentration, we also combined with 20% FBS just before adding to washed cells. Cells were transfected for 3 hours at 37° C., 5% CO2. Cells were washed with PBS, treated with trypsin and then analyzed by flow cytometry. siRNA uptake was measured by intensity of Cy5 fluorescence and cellular viability assessed by addition of propidium iodide.

| Substance | Percent Uptake, Primary MTF Cells (mouse tail fibroblasts) [%] | Percent Uptake, LacZ Cells (9 L/LacZ cells) [%] | other results |
| --- | --- | --- | --- |
| AAVALLPAVLLALLAPRKKRRQRRRPPQC [PN27] | 61 | 86 |  |
| Ac-KETWWETWWTEWSQPKKKRKV-NH2 [PN182] |  | 85 |  |
| H-AAVALLPAVLLALLAPSGASGLDKRDYV-NH2 [PN29] |  | 87 |  |
| H-GALFLGFLGAAGSTMGAWSQPKSKRKVC-NH2 [PN453] | 79 |  |  |
| H-RGSRRAVTRAQRRDGRRRRRSRRESYSVYVYRVLRQ-NH2 [PN404] | 50 |  |  |
| H-RRRQRRKRGGDIMGEWGNEIFGAIAGFLG-NH2 [PN250] | 86 | 99 |  |
| NH2-LLETLLKPFQCRICMRNFSTRQARRNHRRRHRR-amide (H-LLETLLKPFQCRICMRNFSTRQARRNHRRRHRR-NH2; cysteine pairing not given here) [PN202] |  | 71 |  |
| NH2-RKKRRQRRRPPQCAAVALLPAVLLALLAP-amide (H-RKKRRQRRRPPQCAAVALLPAVLLALLAP-NH2) [PN28] | 81 | 79 |  |
| Ramicade: the RA drug Ramicade (5 mg/kg); TNF-α neutralizing agent infliximab |  |  | hTNF-α ELISA (plasma) (hTNF-α; age 7 weeks): 102.24 pg/mL; hTNF-α ELISA (plasma) (hTNF-α; age 8 weeks): 39.27 pg/mL; hTNF-α ELISA (plasma) (hTNF-α; age 9 weeks): 25.80 pg/mL; RA score (paw and joint inflammation) [1]: RA score stabilization |
| conjugate: TAT-HA peptide (SEQ ID NO: 35) covalently conjugated to the siRNA sense strand (SEQ ID NO: 34) (chain 1 gcaagcugacccugaaguucau; chain 2 RRRQRRKRGGDIMGEWGNEIFGAIAGFLG; peptide-siRNA conjugate) |  |  | siRNA uptake and mean fluorescence, conjugate compared to complexing peptide and RNA (cells): higher uptake and greater mean fluorescence uptake |
